Laboratory results: ChEMBL document CHEMBL1201862, “PubChem BioAssay data set” (2004)
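How tested: cells in 96-well plates exposed to compound for 48 hours at five concentrations. GI50 = concentration required for 50% inhibition of growth.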 Activity calls are given as the source filed them. No stated cut-off is given here; in the data, active = GI50 up to about 1.1 µM and inactive = higher.

Experiments:
Assay in all cases: NCI anticancer screen, dose series, 48 h
[1] = tested on: UACC-257
[2] = tested on: NCI/ADR-RES
[3] = tested on: Malme-3M
[4] = tested on: K562
[5] = tested on: CCRF-CEM
[6] = tested on: HCT-15
[7] = tested on: IGROV-1
[8] = tested on: NCI-H460
[9] = tested on: RPMI-8226
[10] = tested on: KM12
[11] = tested on: SK-MEL-28
[12] = tested on: U-251
[13] = tested on: EKVX
[14] = tested on: SF-539
[15] = tested on: OVCAR-5
[16] = tested on: SF-295
[17] = tested on: Hs-578T
[18] = tested on: UO-31
[19] = tested on: OVCAR-8
[20] = tested on: OVCAR-3
[21] = tested on: SNB-75
[22] = tested on: HOP-62
[23] = tested on: A549
[24] = tested on: HCC 2998
[25] = tested on: HCT-116
[26] = tested on: COLO 205
[27] = tested on: SK-MEL-5
[28] = tested on: 786-0
[29] = tested on: TK-10
[30] = tested on: T47D
[31] = tested on: OVCAR-4
[32] = tested on: DU-145
[33] = tested on: NCI-H23
[34] = tested on: SN12C
[35] = tested on: SNB-19
[36] = tested on: MDA-N
[37] = tested on: PC-3
[38] = tested on: SW-620
[39] = tested on: CAKI-1
[40] = tested on: SK-OV-3
[41] = tested on: HL-60
[42] = tested on: ACHN
[43] = tested on: SR
[44] = tested on: MDA-MB-231
[45] = tested on: M14
[46] = tested on: MOLT-4
[47] = tested on: MCF7
[48] = tested on: SK-MEL-2
[49] = tested on: LOX IMVI
[50] = tested on: A498
[51] = tested on: HT-29
[52] = tested on: SF-268
[53] = tested on: HOP-92
[54] = tested on: NCI-H226
[55] = tested on: MDA-MB-435
[56] = tested on: RXF 393
[57] = tested on: NCI-H522

Measured: GI50

CC1CN=C(N(Cc2ccc(F)cc2)C(=O)Nc2ccc(Cl)cc2)S1 (stereo not given)
6.22 µM: [6]
active: [45] 0.51 µM
inactive: [1] 45.9 µM | [2] 12.5 µM | [3] 34.8 µM | [4] 9.23 µM | [5] 28 µM | [7] 18.9 µM | [8] 18.7 µM | [9] 43.4 µM | [10] 14 µM | [11] 16.3 µM | [12] 32.4 µM | [13] 16.2 µM | [14] 30.5 µM | [15] > 100 µM | [16] 27.7 µM | [17] 51.3 µM | [18] 35.2 µM | [19] 30.1 µM | [20] 20.2 µM | [21] 18.2 µM | [22] 93.3 µM | [23] 21.4 µM | [24] 23.2 µM | [25] 22.3 µM | [26] 30.3 µM | [27] 13.7 µM | [28] 20.5 µM | [29] 21.8 µM | [30] 13.3 µM | [31] 13.3 µM | [32] 61.9 µM | [33] 26.9 µM | [34] 28.2 µM | [35] 95.1 µM | [36] 11.7 µM | [37] 23 µM | [38] 22.5 µM | [39] 5.32 µM | [40] > 100 µM | [41] 17.5 µM | [42] 6.68 µM | [43] 26.5 µM | [44] 32.3 µM | [46] 27.7 µM | [47] 28.8 µM | [48] 15.1 µM | [49] 16.1 µM | [50] 18.9 µM | [51] 17.8 µM | [52] 21.4 µM

Cc1ccccc1C(=O)NC(O)(C(F)(F)F)C(F)(F)F
inactive: [1] 61.9 µM | [2] 70 µM | [3] 28.2 µM | [4] 57.9 µM | [53] > 100 µM | [5] 58.3 µM | [7] > 100 µM | [8] 84.9 µM | [9] 49.1 µM | [10] 42.5 µM | [11] > 100 µM | [12] > 100 µM | [13] > 100 µM | [54] > 100 µM | [14] > 100 µM | [15] > 100 µM | [16] > 100 µM | [17] 22.5 µM | [18] 34.8 µM | [19] > 100 µM | [20] 35.1 µM | [22] > 100 µM | [23] 82.4 µM | [24] > 100 µM | [25] > 100 µM | [26] > 100 µM | [55] > 100 µM | [27] 94 µM | [28] > 100 µM | [56] > 100 µM | [29] > 100 µM | [57] 47 µM | [30] 65.2 µM | [31] 51.8 µM | [32] > 100 µM | [33] 78.2 µM | [34] > 100 µM | [35] > 100 µM | [36] > 100 µM | [37] 25.5 µM | [38] > 100 µM | [39] > 100 µM | [40] > 100 µM | [41] 54.7 µM | [42] > 100 µM | [44] > 100 µM | [45] > 100 µM | [46] 35.9 µM | [47] > 100 µM | [48] 56.1 µM | [49] > 100 µM | [50] > 100 µM | [51] 91.2 µM | [52] > 100 µM
active: [21] 0.0302 µM
> 100 µM: [6]

COc1cc(CC(C)N[C@@H](C)c2ccccc2)cc(OC)c1 (stereo not given in full)
inactive: [10] > 100 µM | [14] > 100 µM | [17] 72.1 µM | [56] > 100 µM | [57] > 100 µM | [39] > 100 µM | [48] > 100 µM
